Type in all cases: cell-based
The target in one experiment is hGLP-1R (Homo sapiens, UniProt P43220). Briefly: Functional cAMP formation (HTRF) in HEK-293 clonal cells expressing hGLP-1R, 0.1% bovine casein, without or with 1.0% human serum albumin. Details: expressed in transfected cells. As to conditions: for Emax: read-out: hGLP-1R Emax, % ± SEM; for EC50: geometric mean. The method in brief: (§1)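 Readings of the HTRF 665/620 nm ratio, which falls as cAMP rises, were converted to nM cAMP using a standard curve after 30 min peptide exposure at 37° C.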
In general terms: Changes in cAMP serve as a functional read-out for many G protein-coupled receptors.

For a further experiment, the target named is T1, hGIPR (Homo sapiens, UniProt P48546).
T1 construct: expressed in transfected cells
T1 sequence (P48546 22-466): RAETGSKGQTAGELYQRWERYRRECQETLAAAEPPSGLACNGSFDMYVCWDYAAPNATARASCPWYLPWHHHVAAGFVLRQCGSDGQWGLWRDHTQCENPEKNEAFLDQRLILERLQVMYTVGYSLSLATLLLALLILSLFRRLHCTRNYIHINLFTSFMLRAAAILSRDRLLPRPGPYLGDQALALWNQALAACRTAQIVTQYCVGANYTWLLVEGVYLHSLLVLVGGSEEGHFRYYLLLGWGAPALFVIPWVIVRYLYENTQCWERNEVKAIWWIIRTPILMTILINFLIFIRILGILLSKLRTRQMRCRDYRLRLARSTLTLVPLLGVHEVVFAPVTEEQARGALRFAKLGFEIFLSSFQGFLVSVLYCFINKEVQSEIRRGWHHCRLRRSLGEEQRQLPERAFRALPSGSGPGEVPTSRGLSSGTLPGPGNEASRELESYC
Kind of experiment: Functional cAMP formation (HTRF) in HEK-293 clonal cells expressing hGIPR, 0.1% bovine casein, without or with 1.0% human serum albumin. As to conditions: for EC50: cAMP. The gist of the method: as §1

Another experiment deals with T2, hGCGR (Homo sapiens, UniProt P47871).
T2 construct: expressed in transfected cells
Kind of experiment: Functional cAMP formation (HTRF) in HEK-293 clonal cells expressing hGCGR, 0.1% bovine casein, without or with 1.0% human serum albumin. The gist of the method: as §1

Where [1] appears, read: HEK293, 0.1% bovine casein and 1.0% human serum albumin, 37° C., percent of maximal response to GLP-1(7-36)NH2.
[2] abbreviates: HEK293, percent of maximal response to GLP-1(7-36)NH2, 37° C., 0.1% bovine casein, arithmetic mean.
The mark [3] stands for this setting: HEK293, 0.1% bovine casein and 1.0% human serum albumin, 37° C., percent of maximal response to GIP(1-42)NH2, read-out: hGIPR Emax, % ± SEM.
The mark [4] stands for this setting: 0.1% bovine casein and 1.0% human serum albumin, 37° C., geometric mean, read-out: hGCGR EC50, nM (SEM, n).
The mark [5] stands for this setting: cAMP, incubated at 37° C., 0.1% bovine casein (no human serum albumin), geometric mean, read-out: hGCGR EC50, nM (SEM, n).

Experimental findings from patent US20230265151A1, “GIP/GLP1 CO-AGONIST COMPOUNDS” (priority 2020, published 2023) are described below.

Read-outs that look alike come from different tables or passages of the source.

hGLP-1R, sequence (P43220 24-463): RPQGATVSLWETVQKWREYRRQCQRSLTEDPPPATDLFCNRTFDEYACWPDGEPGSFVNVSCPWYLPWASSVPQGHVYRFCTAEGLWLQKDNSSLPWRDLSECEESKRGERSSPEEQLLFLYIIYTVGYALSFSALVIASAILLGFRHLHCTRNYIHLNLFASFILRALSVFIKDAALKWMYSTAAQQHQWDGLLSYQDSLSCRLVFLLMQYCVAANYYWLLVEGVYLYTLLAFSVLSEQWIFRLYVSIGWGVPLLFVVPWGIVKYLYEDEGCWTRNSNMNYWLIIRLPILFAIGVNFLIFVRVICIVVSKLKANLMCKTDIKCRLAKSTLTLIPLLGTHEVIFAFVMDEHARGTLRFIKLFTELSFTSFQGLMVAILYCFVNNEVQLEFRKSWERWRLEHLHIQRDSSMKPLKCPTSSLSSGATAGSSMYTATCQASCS
T2 sequence (P47871 26-477): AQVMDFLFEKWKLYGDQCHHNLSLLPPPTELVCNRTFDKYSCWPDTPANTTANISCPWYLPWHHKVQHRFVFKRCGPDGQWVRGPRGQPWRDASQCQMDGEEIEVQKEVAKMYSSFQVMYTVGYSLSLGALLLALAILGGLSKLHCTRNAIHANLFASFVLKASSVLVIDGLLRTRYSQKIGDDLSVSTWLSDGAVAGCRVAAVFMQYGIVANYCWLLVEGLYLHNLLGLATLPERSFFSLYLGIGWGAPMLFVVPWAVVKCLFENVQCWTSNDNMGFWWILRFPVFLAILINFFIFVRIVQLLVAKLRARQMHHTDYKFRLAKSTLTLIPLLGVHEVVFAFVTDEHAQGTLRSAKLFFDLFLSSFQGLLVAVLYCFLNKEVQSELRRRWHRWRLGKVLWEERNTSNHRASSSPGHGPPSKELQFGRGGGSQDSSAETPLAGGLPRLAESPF

Consider `CC[C@H](C)[C@H](NC(=O)[C@H](CCCN)NC(=O)[C@H](CC(=O)O)NC(=O)[C@H](CC(C)C)NC(=O)[C@](C)(CC(C)C)NC(=O)[C@@H](NC(=O)C(C)(C)NC(=O)[C@H](Cc1ccc(O)cc1)NC(=O)[C@H](CC(=O)O)NC(=O)[C@H](CO)NC(=O)[C@@H](NC(=O)[C@](C)(Cc1ccccc1F)NC(=O)[C@@H](NC(=O)CNC(=O)[C@H](CCC(=O)O)NC(=O)C(C)(C)NC(=O)[C@@H](N)Cc1ccc(O)cc1)[C@@H](C)O)[C@@H](C)O)[C@@H](C)CC)C(=O)N[C@@H](C)C(=O)N[C@@H](CCC(N)=O)C(=O)NC(C)(C)C(=O)N[C@@H](CCC(=O)O)C(=O)N[C@@H](Cc1ccccc1)C(=O)N[C@H](C(=O)N[C@@H](CCCCNC(=O)COCCOCCNC(=O)COCCOCCNC(=O)CC[C@H](NC(=O)COCCOCCNC(=O)CCCCCCCCCCCCC(=O)O)C(=O)O)C(=O)N[C@@](C)(Cc1ccc(O)cc1)C(=O)N[C@@H](CC(C)C)C(=O)N[C@H](C(=O)N[C@@H](CCCCNC(=O)COCCOCCNC(=O)COCCOCCNC(=O)CC[C@H](NC(=O)COCCOCCNC(=O)CCCCCCCCCCCCC(=O)O)C(=O)O)C(=O)NCC(=O)NCC(=O)N1CCC[C@H]1C(=O)N[C@@H](CO)C(=O)N[C@@H](CO)C(=O)NCC(=O)N[C@@H](C)C(=O)N1CCC[C@H]1C(=O)N1CCC[C@H]1C(=O)N1CCC[C@H]1C(=O)N[C@@H](CO)C(N)=O)[C@@H](C)CC)[C@@H](C)CC` [Example 363], for which the Emax (commonly the greatest response seen or fitted, relative to the assay's reference) came to 111% on hGLP-1R (HEK293, cAMP, 37° C., 0.1% bovine casein and 1.0% human serum albumin, percent of maximal response to GLP-1(7-36)NH2); 91.1% on hGIPR (HEK293, cAMP, 37° C., 0.1% bovine casein and 1.0% human serum albumin, percent of maximal response to GIP(1-42)NH2, read-out: hGIPR Emax, % ± SEM); 111% at hGIPR (HEK293, cAMP, 37° C., 0.1% bovine casein, percent of maximal response to GIP(1-42)NH2, arithmetic mean, read-out: hGIPR Emax, % ± SEM). Moreover, the EC50 – broadly, the midpoint of the concentration-response curve – was 0.34 nM at hGLP-1R (cAMP, 37° C., 0.1% bovine casein (no human serum albumin), read-out: hGLP-1R EC50, nM (SEM, n)); 0.0183 nM on hGIPR (37° C., 0.1% bovine casein (no human serum albumin), geometric mean, read-out: hGIPR EC50, nM (SEM, n)); 0.976 nM at hGIPR (37° C., 0.1% bovine casein and 1.0% human serum albumin, geometric mean (SEM, n), read-out: hGIPR EC50, nM (SEM, n)); more than 9950 nM at hGCGR (cAMP, 37° C., 0.1% bovine casein (no human serum albumin), geometric mean, read-out: hGCGR EC50, nM (SEM, n)); more than 9950 nM on hGCGR (cAMP, 37° C., 0.1% bovine casein and 1.0% human serum albumin, geometric mean (SEM, n), read-out: hGCGR EC50, nM (SEM, n)).
As for `CC[C@H](C)[C@H](NC(=O)[C@H](CC(C)C)NC(=O)[C@](C)(Cc1ccc(O)cc1)NC(=O)[C@@H](CCC(=O)O)NC(=O)[C@@H](NC(=O)[C@H](Cc1ccccc1)NC(=O)[C@H](CCC(=O)O)NC(=O)C(C)(C)NC(=O)[C@H](CCC(N)=O)NC(=O)[C@H](C)NC(=O)[C@H](CCCCNC(=O)[C@@H](N)CCCCNC(=O)CC[C@H](NC(=O)CCCCCCCCCCCCC(=O)O)C(=O)O)NC(=O)[C@H](CCCN)NC(=O)[C@H](CC(=O)O)NC(=O)[C@H](CC(C)C)NC(=O)[C@](C)(CC(C)C)NC(=O)[C@@H](NC(=O)C(C)(C)NC(=O)[C@@H](NC(=O)[C@H](CC(=O)O)NC(=O)[C@H](CO)NC(=O)[C@@H](NC(=O)[C@](C)(Cc1ccccc1F)NC(=O)[C@@H](NC(=O)CNC(=O)[C@H](CCC(=O)O)NC(=O)C(C)(C)NC(=O)[C@@H](N)Cc1ccc(O)cc1)[C@@H](C)O)[C@@H](C)O)C(C)C)[C@@H](C)CC)[C@@H](C)CC)C(=O)N[C@@H](CCC(=O)O)C(=O)NCC(=O)NCC(=O)N[C@@H](CCCCNC(=O)[C@@H](N)CCCCNC(=O)CC[C@H](NC(=O)CCCCCCCCCCCCC(=O)O)C(=O)O)C(=O)N[C@@H](CO)C(=O)N[C@@H](CO)C(=O)NCC(=O)N[C@@H](C)C(=O)N1CCC[C@H]1C(=O)N1CCC[C@H]1C(=O)N1CCC[C@H]1C(=O)N[C@@H](CO)C(N)=O` [Example 164], the EC50 at hGLP-1R (0.1% bovine casein and 1.0% human serum albumin, 37° C., read-out: hGLP-1R EC50, nM (SEM, n)) is 26.6 nM; on hGIPR (incubated at 37° C., 0.1% bovine casein (no human serum albumin), geometric mean, read-out: hGIPR EC50, nM (SEM, n)), 0.0464 nM; on hGCGR (setting [4]) it was more than 9950 nM; on hGCGR (setting [5]) it was more than 9950 nM. The maximum response (Emax) came to 95.4% at hGLP-1R (setting [1]); 93.8 ± 0.298% at hGLP-1R (setting [2]); 93% at hGIPR (setting [3]); 95.8 ± 5.48% on hGIPR (HEK293, percent of maximal response to GIP(1-42)NH2, 37° C., 0.1% bovine casein, arithmetic mean, read-out: hGIPR Emax, % ± SEM).
Regarding `CC[C@H](C)[C@H](NC(=O)[C@H](CCCN)NC(=O)[C@H](CC(=O)O)NC(=O)[C@H](CC(C)C)NC(=O)[C@](C)(CC(C)C)NC(=O)[C@@H](NC(=O)[C@H](CO)NC(=O)[C@H](Cc1ccncc1)NC(=O)[C@H](CC(=O)O)NC(=O)[C@H](CO)NC(=O)[C@@H](NC(=O)[C@](C)(Cc1ccccc1F)NC(=O)[C@@H](NC(=O)CNC(=O)[C@H](CCC(=O)O)NC(=O)C(C)(C)NC(=O)[C@@H](N)Cc1ccc(O)cc1)[C@@H](C)O)[C@@H](C)O)[C@@H](C)CC)C(=O)N[C@@H](C)C(=O)N[C@@H](CCC(N)=O)C(=O)NC(C)(C)C(=O)N[C@@H](CCCCNC(=O)COCCOCCNC(=O)COCCOCCNC(=O)COCCOCCNC(=O)CC[C@H](NC(=O)CCCCCCCCCCCCC(=O)O)C(=O)O)C(=O)N[C@@H](Cc1ccccc1)C(=O)N[C@H](C(=O)N[C@H](CCC(=O)O)C(=O)N[C@@](C)(Cc1ccc(O)cc1)C(=O)N[C@@H](CC(C)C)C(=O)N[C@H](C(=O)N[C@@H](CCCCNC(=O)COCCOCCNC(=O)COCCOCCNC(=O)COCCOCCNC(=O)CC[C@H](NC(=O)CCCCCCCCCCCCC(=O)O)C(=O)O)C(=O)NCC(=O)NCC(=O)N1CCC[C@H]1C(=O)N[C@@H](CO)C(=O)N[C@@H](CO)C(=O)NCC(=O)N[C@@H](C)C(=O)N1CCC[C@H]1C(=O)N1CCC[C@H]1C(=O)N1CCC[C@H]1C(=O)N[C@@H](CO)C(N)=O)[C@@H](C)CC)[C@@H](C)CC` [Example 227], the Emax on hGLP-1R (setting [1]) turned out to be 111%; on hGLP-1R (setting [2]), 96.1%; on hGIPR (setting [3]) it was 76.1%. The EC50 at hGLP-1R (cAMP, incubated at 37° C., 0.1% bovine casein (no human serum albumin), read-out: hGLP-1R EC50, nM (SEM, n)) was 1.22 nM; on hGCGR (setting [4]), more than 9950 nM; on hGCGR (setting [5]), more than 9950 nM.
On to `CC[C@H](C)[C@H](NC(=O)[C@H](CC(C)C)NC(=O)[C@](C)(Cc1ccc(O)cc1)NC(=O)[C@H](CCCCNC(=O)COCCOCCNC(=O)COCCOCCNC(=O)CC[C@H](NC(=O)CCCCCCCCCCCCC(=O)O)C(=O)O)NC(=O)[C@@H](NC(=O)[C@](C)(Cc1ccccc1)NC(=O)[C@H](CCC(=O)O)NC(=O)C(C)(C)NC(=O)[C@H](CCC(N)=O)NC(=O)[C@H](C)NC(=O)[C@H](CCCCNC(=O)COCCOCCNC(=O)COCCOCCNC(=O)CC[C@H](NC(=O)CCCCCCCCCCCCC(=O)O)C(=O)O)NC(=O)[C@H](CCCN)NC(=O)[C@H](CC(=O)O)NC(=O)[C@H](CC(C)C)NC(=O)[C@](C)(CC(C)C)NC(=O)[C@@H](NC(=O)[C@H](CO)NC(=O)[C@@H](NC(=O)[C@H](CC(=O)O)NC(=O)[C@H](CO)NC(=O)[C@@H](NC(=O)[C@](C)(Cc1ccccc1F)NC(=O)[C@@H](NC(=O)CNC(=O)[C@H](CCC(=O)O)NC(=O)C(C)(C)NC(=O)[C@@H](N)Cc1ccc(O)cc1)[C@@H](C)O)[C@@H](C)O)C(C)C)[C@@H](C)CC)[C@@H](C)CC)C(=O)N[C@@H](CCC(=O)O)C(=O)NCC(=O)NCC(=O)N1CCC[C@H]1C(=O)N[C@@H](CO)C(=O)N[C@@H](CO)C(=O)NCC(=O)N[C@@H](C)C(=O)N1CCC[C@H]1C(=O)N1CCC[C@H]1C(=O)N1CCC[C@H]1C(=O)N[C@@H](CO)C(N)=O` [Example 118], for which the EC50 at hGLP-1R (hGLP-1R EC50, nM (SEM, n), cAMP, incubated at 37° C., 0.1% bovine casein (no human serum albumin)) was 0.437 nM; at hGIPR (hGIPR EC50, nM (SEM, n), incubated at 37° C., 0.1% bovine casein (no human serum albumin), geometric mean) it was 0.0547 nM; on hGCGR (hGCGR EC50, nM (SEM, n), cAMP, incubated at 37° C., 0.1% bovine casein (no human serum albumin), geometric mean), more than 9950 nM. Further, the Emax at hGIPR (HEK293, read-out: hGIPR Emax, % ± SEM, percent of maximal response to GIP(1-42)NH2, 37° C., 0.1% bovine casein, arithmetic mean) amounted to 94.7%.
